Results on 20 compounds are retold here after patent US8541380B2, “C-aryl glucoside SGLT2 inhibitors and pharmaceutical compositions comprising same” (Green Cross Corporation, priority 2009, dated 2013).

One may read the IC50 as the concentration that inhibits the measured activity by half. A higher IC50 goes with lower potency.

Chain of human SGLT2 (P31639 whole entry): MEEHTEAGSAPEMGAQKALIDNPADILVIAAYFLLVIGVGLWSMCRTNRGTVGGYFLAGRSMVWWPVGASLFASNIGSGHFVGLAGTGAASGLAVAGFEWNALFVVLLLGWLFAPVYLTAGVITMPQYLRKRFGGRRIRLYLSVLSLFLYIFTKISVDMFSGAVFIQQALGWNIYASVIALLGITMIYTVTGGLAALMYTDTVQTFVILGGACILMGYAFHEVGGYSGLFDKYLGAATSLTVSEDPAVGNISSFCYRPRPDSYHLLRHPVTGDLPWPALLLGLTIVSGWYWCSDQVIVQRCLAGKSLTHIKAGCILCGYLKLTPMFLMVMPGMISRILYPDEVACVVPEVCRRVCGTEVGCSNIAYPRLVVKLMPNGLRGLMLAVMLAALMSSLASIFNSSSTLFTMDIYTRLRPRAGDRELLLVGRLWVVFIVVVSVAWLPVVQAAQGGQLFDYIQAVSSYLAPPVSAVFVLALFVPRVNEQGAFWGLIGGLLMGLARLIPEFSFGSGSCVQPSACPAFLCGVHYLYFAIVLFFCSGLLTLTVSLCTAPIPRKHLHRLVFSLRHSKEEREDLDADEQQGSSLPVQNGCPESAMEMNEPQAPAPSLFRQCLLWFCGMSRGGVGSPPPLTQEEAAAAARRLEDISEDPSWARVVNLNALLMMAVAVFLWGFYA

The test has as its target human SGLT2 (Homo sapiens (Human), UniProt P31639). The test is described as follows: hSGLT2 inhibitory activity, sodium-dependent 14C-AMG glucose transport assay in CHO cells expressing hSGLT2. Type of test: cell-based. The following applies: 14C-AMG uptake, CHO cells expressing hSGLT2, 37° C. for 2 h. An excerpt: Human SGLT2 (hSGLT2) gene was amplified by PCR from cDNA-Human Adult Normal Tissue Kidney (Invitrogen, Carlsbad, Calif.). The hSGLT2 sequence was cloned into pcDNA3.1(+) for mammalian expression and were stably transfected into Chinese hamster ovary (CHO) cells. SGLT2-expressing clones were selected based on resistance to G418 antibiotic (Geneticin®, Invitrogen, Carlsbad, Calif.) and activity in the ^14C-α-methyl-D-glucopyranoside (^14C-AMG) uptake assay.
For sodium-dependent glucose transport assay, cells expressing hSGLT2 were seeded into a 96-well culture plate at a density of 5×10^4 cells/well in RPMI medium 1640 containing 10% fetal bovine serum. The cells were used 1 day after plating. They were incubated in pretreatment buffer (10 mM HEPES, 5 mM Tris, 140 mM choline chloride, 2 mM KCl, 1 mM CaCl2, and 1 mM MgCl2, pH 7.4) at 37° C. for 10 min. They were then incubated in uptake buffer (10 mM HEPES, 5 mM Tris, 140 mM NaCl, 2 mM KCl, 1 mM CaCl2, 1 mM MgCl2, and 1 mM ^14C-nonlabeled AMG pH 7.4) containing ^14C-labeled (8 uM) and inhibitor or dimethyl sulfoxide (DMSO) vehicle at 37° C. for 2 h. Cells were washed twice with washing buffer (pretreatment buffer containing 10 mM AMG at room temperature) and then the radioactivity was measured using a liquid scintillation counter.
`OC[C@H]1O[C@@H](c2ccc(Cl)c(Cc3nnc(-c4cnccn4)s3)c2)[C@H](O)[C@@H](O)[C@@H]1O` [Example 42, (2S,3R,4R,5S,6R)-2-(4-Chloro-3-((5-(pyrazin-2-yl)-1,3,4-thiadiazol-2-yl)methyl)phenyl)-6-(hydroxymethyl)-tetrahydro-2H-pyran-3,4,5-triol]: half-maximal inhibition (IC50) required 4.06 nM. `OC[C@H]1O[C@@H](c2ccc(Cl)c(Cc3nnc(-c4ccnnc4)s3)c2)[C@H](O)[C@@H](O)[C@@H]1O` [Example 43, (2S,3R,4R,5S,6R)-2-(4-Chloro-3-((5-(pyridazin-4-yl)-1,3,4-thiadiazol-2-yl)methyl)phenyl)-6-(hydroxymethyl)-tetrahydro-2H-pyran-3,4,5-triol] came in with an IC50 of 190 nM. To `Cc1cccc(-c2nnc(Cc3cc([C@@H]4O[C@H](CO)[C@@H](O)[C@H](O)[C@H]4O)ccc3Cl)s2)n1` [Example 44, (2S,3R,4R,5S,6R)-2-(4-Chloro-3-((5-(6-methylpyridin-2-yl)-1,3,4-thiadiazol-2-yl)methyl)phenyl)-6-(hydroxymethyl)-tetrahydro-2H-pyran-3,4,5-triol] belongs 638 nM; to `Cc1cc(-c2nnc(Cc3cc([C@@H]4O[C@H](CO)[C@@H](O)[C@H](O)[C@H]4O)ccc3Cl)s2)ccn1` [Example 45, (2S,3R,4R,5S,6R)-2-(4-Chloro-3-((5-(2-methylpyridin-4-yl)-1,3,4-thiadiazol-2-yl)methyl)phenyl)-6-(hydroxymethyl)-tetrahydro-2H-pyran-3,4,5-triol], 36.4 nM. In turn, `COC(=O)c1ccc(Cc2cc([C@@H]3O[C@H](CO)[C@@H](O)[C@H](O)[C@H]3O)ccc2Cl)nn1` [Example 49, Methyl 6-(2-chloro-5-((2S,3R,4R,5S,6R)-3,4,5-trihydroxy-6-(hydroxymethyl)-tetrahydro-2H-pyran-2-yl)benzyl)pyridazine-3-carboxylate] had a half-inhibitory concentration (IC50) of 201 nM. `CCCCCOc1ccc(Cc2cc([C@@H]3O[C@H](CO)[C@@H](O)[C@H](O)[C@H]3O)ccc2Cl)nn1` [Example 54, (2S,3R,4R,5S,6R)-2-(4-Chloro-3-((6-(pentyloxy)pyridazin-3-yl)methyl)phenyl)-6-(hydroxymethyl)-tetrahydro-2H-pyran-3,4,5-triol]: the IC50 was determined as 17 nM. `CCCCCCCCOc1ccc(Cc2cc([C@@H]3O[C@H](CO)[C@@H](O)[C@H](O)[C@H]3O)ccc2Cl)nn1` [Example 56, (2S,3R,4R,5S,6R)-2-(4-Chloro-3-((6-(octyloxy)pyridazin-3-yl)methyl)phenyl)-6-(hydroxymethyl)-tetrahydro-2H-pyran-3,4,5-triol] came in with an IC50 of 50.5 nM.

Turning to `OC[C@H]1O[C@@H](c2ccc(Cl)c(Cc3ccc(OC4CCCCC4)nn3)c2)[C@H](O)[C@@H](O)[C@@H]1O` [Example 59, (2S,3R,4R,5S,6R)-2-(4-Chloro-3-((6-(cyclohexyloxy)pyridazin-3-yl)methyl)phenyl)-6-(hydroxymethyl)-tetrahydro-2H-pyran-3,4,5-triol], the IC50 is 111 nM. Compound `OC[C@H]1O[C@@H](c2ccc(Cl)c(Cc3ccc(-c4ccoc4)nn3)c2)[C@H](O)[C@@H](O)[C@@H]1O` [Example 63, (2S,3R,4R,5S,6R)-2-(4-Chloro-3-((6-(furan-3-yl)pyridazin-3-yl)methyl)phenyl)-6-(hydroxymethyl)-tetrahydro-2H-pyran-3,4,5-triol] yielded a half-inhibitory concentration (IC50) of 61.3 nM.

`OC[C@H]1O[C@@H](c2ccc(Cl)c(Cc3ccc(-c4ccc5c(c4)OCO5)nn3)c2)[C@H](O)[C@@H](O)[C@@H]1O` [Example 67, (2S,3R,4R,5S,6R)-2-(3-((6-(Benzo[d][1,3]dioxol-5-yl)pyridazin-3-yl)methyl)-4-chlorophenyl)-6-(hydroxymethyl)-tetrahydro-2H-pyran-3,4,5-triol]: the half-inhibitory concentration (IC50) amounted to 82.7 nM. As to `Cc1ccc(Cc2cc([C@@H]3O[C@H](CO)[C@@H](O)[C@H](O)[C@H]3O)ccc2Cl)nn1` [Example 73, (2S,3R,4R,5S,6R)-2-(4-Chloro-3-((6-methylpyridazin-3-yl)methyl)phenyl)-6-(hydroxymethyl)-tetrahydro-2H-pyran-3,4,5-triol], the concentration for half-maximal inhibition (IC50) is 293 nM.

Turning to `CCCc1ccc(Cc2cc([C@@H]3O[C@H](CO)[C@@H](O)[C@H](O)[C@H]3O)ccc2Cl)nn1` [Example 74, (2S,3R,4R,5S,6R)-2-(4-Chloro-3-((6-propylpyridazin-3-yl)methyl)phenyl)-6-(hydroxymethyl)-tetrahydro-2H-pyran-3,4,5-triol], the IC50 is 237 nM. To `CC(C)Cc1ccc(Cc2cc([C@@H]3O[C@H](CO)[C@@H](O)[C@H](O)[C@H]3O)ccc2Cl)nn1` [Example 77, (2S,3R,4R,5S,6R)-2-(4-Chloro-3-((6-isobutylpyridazin-3-yl)methyl)phenyl)-6-(hydroxymethyl)-tetrahydro-2H-pyran-3,4,5-triol] belongs 811 nM. `CCSc1ccc(Cc2cc([C@@H]3O[C@H](CO)[C@@H](O)[C@H](O)[C@H]3O)ccc2Cl)nn1` [Example 80, (2S,3R,4R,5S,6R)-2-(4-Chloro-3-((6-(ethylthio)pyridazin-3-yl)methyl)phenyl)-6-(hydroxymethyl)-tetrahydro-2H-pyran-3,4,5-triol] came in with an IC50 of 71.3 nM. Compared with the last compound, the IC50 is about 11-fold lower. To `CSc1nnc(Cc2cc([C@@H]3O[C@H](CO)[C@@H](O)[C@H](O)[C@H]3O)ccc2Cl)cc1C` [Example 82, (2S,3R,4R,5S,6R)-2-(4-Chloro-3-((5-methyl-6-(methylthio)pyridazin-3-yl)methyl)phenyl)-6-(hydroxymethyl)tetrahydro-2H-pyran-3,4,5-triol] belongs 1520 nM. As to `Cc1cc(Cc2cc([C@@H]3O[C@H](CO)[C@@H](O)[C@H](O)[C@H]3O)ccc2Cl)n[nH]c1=O` [Example 83, 6-(2-Chloro-5-((2S,3R,4R,5S,6R)-3,4,5-trihydroxy-6-(hydroxymethyl)-tetrahydro-2H-pyran-2-yl)benzyl)-4-methylpyridazin-3(2H)-one], the half-inhibitory concentration (IC50) was 618 nM. Consider `OC[C@H]1O[C@@H](c2ccc(Cl)c(Cc3ccc(N4CCOCC4)nn3)c2)[C@H](O)[C@@H](O)[C@@H]1O` [Example 84, (2S,3R,4R,5S,6R)-2-(4-Chloro-3-((6-morpholinopyridazin-3-yl)methyl)phenyl)-6-(hydroxymethyl)-tetrahydro-2H-pyran-3,4,5-triol], for which inhibition was half-maximal at 700 nM (IC50). The IC50 values of the last two compounds are within 1.5-fold of each other. To `Cc1ccc2nc(Cc3cc([C@@H]4O[C@H](CO)[C@@H](O)[C@H](O)[C@H]4O)ccc3Cl)nnc2c1` [Example 87, (2S,3R,4R,5S,6R)-2-(4-Chloro-3-((7-methylbenzo[e][1,2,4]triazin-3-yl)methyl)phenyl)-6-(hydroxymethyl)tetrahydro-2H-pyran-3,4,5-triol] belongs 532 nM. In the case of `OC[C@H]1O[C@@H](c2ccc(Cl)c(Cc3nnc4ccccc4n3)c2)[C@H](O)[C@@H](O)[C@@H]1O` [Example 88, (2S,3R,4R,5S,6R)-2-(3-(Benzo[e][1,2,4]triazin-3-ylmethyl)-4-chlorophenyl)-6-(hydroxymethyl)tetrahydro-2H-pyran-3,4,5-triol], the IC50 stood at 491 nM.

`OC[C@H]1O[C@@H](c2ccc(Cl)c(Cc3nccnn3)c2)[C@H](O)[C@@H](O)[C@@H]1O` [Example 89, (2S,3R,4R,5S,6R)-2-(3-((1,2,4-triazin-3-yl)methyl)-4-chlorophenyl)-6-(hydroxymethyl)tetrahydro-2H-pyran-3,4,5-triol] showed an IC50 of 261 nM.
